# Entries after “also recorded” stand apart in the source; their conditions may differ. Where a SMILES comes first, the peptide text is derived from it.
# Experiments:
# zfTac3ra [1] = experiment: Receptor transactivation assay, CRE-Luc reporter (PKA activation), COS-7 cells expressing zfTac3ra; assay type: cell-based, zebrafish; conditions: mean ± SEM
# How it was run: (§1)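 COS-7 cells were cotransfected with zebrafish tac3ra or tac3rb (or human NK3R), an SRE-Luc (PKC) or CRE-Luc (PKA) reporter and β-galactosidase. After 36 h serum starvation, cells were stimulated with vehicle or various concentrations of human or zebrafish NKBs or analogs for 6 h. Luciferase was normalized to β-galactosidase; triplicates, three independent sets.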
# zfTac3rb [2] = experiment: Receptor transactivation assay, CRE-Luc reporter (PKA activation), COS-7 cells expressing zfTac3rb; assay type: cell-based, zebrafish; conditions: mean ± SEM
# How it was run: as §1
# huNK3R [3] = target: T1, huNK3R (Homo sapiens, UniProt P29371); experiment: Receptor transactivation assay, CRE-Luc reporter (PKA activation), COS-7 cells expressing human NK3R; assay type: cell-based; conditions: Table 5, CRE-Luc follows PKA activation, mean ± SEM
# T1 construct: host or cells: COS-7
# T1 sequence (P29371 1-465): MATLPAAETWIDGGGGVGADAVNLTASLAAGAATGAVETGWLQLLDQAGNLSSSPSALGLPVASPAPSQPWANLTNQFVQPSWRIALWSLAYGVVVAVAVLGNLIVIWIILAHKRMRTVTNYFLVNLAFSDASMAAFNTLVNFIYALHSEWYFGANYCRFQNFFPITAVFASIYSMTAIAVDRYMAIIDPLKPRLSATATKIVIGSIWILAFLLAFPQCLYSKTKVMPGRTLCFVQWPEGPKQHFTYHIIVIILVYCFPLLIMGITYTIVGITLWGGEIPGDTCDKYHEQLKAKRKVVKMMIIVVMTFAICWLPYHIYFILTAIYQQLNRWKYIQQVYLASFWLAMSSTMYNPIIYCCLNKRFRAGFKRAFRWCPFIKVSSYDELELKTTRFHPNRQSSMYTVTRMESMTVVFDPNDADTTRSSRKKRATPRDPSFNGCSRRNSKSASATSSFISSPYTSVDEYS
# Experimental: In order to study the signaling pathways of the novel zebrafish NKBs, the entire coding regions of zftac3ra (denoted by SEQ ID NO:6) or zftac3rb (denoted by SEQ ID NO:7), or the cDNA clone for human NK3R (obtained from the Missouri S&T cDNA Resource Center, were inserted into pcDNA3.1 (Invitrogen). The luciferase assay was conducted according to Biran et al., 2008 [4] COS-7 cells were grown in DMEM supplemented with 10% FBS, 1% glutamine, 100 U/ml penicillin, and 100 mg/ml streptomycin (Biological Industries) under 5% CO2 until confluent. Cotransfection of either pc-zftac3ra, pc-zftac3rb or pc-Htac3r (at 3 μg/plate), a reporter plasmid (at 2 μg/plate), and pCMV-β-galactosidase (at 1 μg/plate) was carried out with FuGENE 6.0 reagent (Roche). The cells were serum starved for 36 h, stimulated with vehicle or various concentrations of either human (Sigma) or zebrafish NKBs for 6 h, and then harvested and analyzed. Lysates prepared from the harvested cells were assayed for both luciferase activity and β-galactosidase activity, which was used as an internal standard to normalize the luciferase activity directed by the test plasmid. […]
# The response, binding selectivity and signal transduction pathways of the novel tachykinin receptors to their agonists were evaluated by functional expression analysis, using COS-7 cells. […]
# zfTac3ra [4] = experiment: Receptor transactivation assay, SRE-Luc reporter (PKC activation), COS-7 cells expressing zfTac3ra; assay type: cell-based, zebrafish; conditions: mean ± SEM
# How it was run: as §1
# zfTac3rb [5] = experiment: Receptor transactivation assay, SRE-Luc reporter (PKC activation), COS-7 cells expressing zfTac3rb; assay type: cell-based, zebrafish; conditions: mean ± SEM
# How it was run: as §1
# huNK3R [6] = target: T1, huNK3R; experiment: Receptor transactivation assay, SRE-Luc reporter (PKC activation), COS-7 cells expressing human NK3R; assay type: cell-based
# Experimental: In order to study the signaling pathways of the novel zebrafish NKBs, the entire coding regions of zftac3ra (denoted by SEQ ID NO:6) or zftac3rb (denoted by SEQ ID NO:7), or the cDNA clone for human NK3R (obtained from the Missouri S&T cDNA Resource Center, were inserted into pcDNA3.1 (Invitrogen). The luciferase assay was conducted according to Biran et al., 2008 [4] COS-7 cells were grown in DMEM supplemented with 10% FBS, 1% glutamine, 100 U/ml penicillin, and 100 mg/ml streptomycin (Biological Industries) under 5% CO2 until confluent. Cotransfection of either pc-zftac3ra, pc-zftac3rb or pc-Htac3r (at 3 μg/plate), a reporter plasmid (at 2 μg/plate), and pCMV-β-galactosidase (at 1 μg/plate) was carried out with FuGENE 6.0 reagent (Roche). The cells were serum starved for 36 h, stimulated with vehicle or various concentrations of either human (Sigma) or zebrafish NKBs for 6 h, and then harvested and analyzed. Lysates prepared from the harvested cells were assayed for both luciferase activity and β-galactosidase activity, which was used as an internal standard to normalize the luciferase activity directed by the test plasmid. Transfection experiments were performed in triplicate with three independently isolated sets.
# To validate the specificity of the serum-responsive element (SRE)-Luc and cAMP-responsive element (CRE)-Luc reporter systems, specific activators for PLC/PKC and AC/PKA signaling pathways were used in control experiments.
# [7] = target: T2, NKB receptors (human NKBR, zebrafish Tac3ra, Tac3rb) (Homo sapiens, UniProt P29371); experiment: Receptor transactivation assay, statements in words across SRE-Luc and CRE-Luc reporters and receptors; assay type: cell-based; conditions: human NKBR (huNK3R), in both signal transduction systems (SRE-Luc and CRE-Luc)
# T2 construct: expressed in transfected cells; host or cells: COS-7
# T2 sequence (P29371 1-465): T1 sequence (P29371 1-465)
# Experimental: (§2) In order to study the signaling pathways of the novel zebrafish NKBs, the entire coding regions of zftac3ra (denoted by SEQ ID NO:6) or zftac3rb (denoted by SEQ ID NO:7), or the cDNA clone for human NK3R (obtained from the Missouri S&T cDNA Resource Center, were inserted into pcDNA3.1 (Invitrogen). The luciferase assay was conducted according to Biran et al., 2008 [4] COS-7 cells were grown in DMEM supplemented with 10% FBS, 1% glutamine, 100 U/ml penicillin, and […] streptomycin (Biological Industries) under 5% CO2 until confluent. Cotransfection of either pc-zftac3ra, pc-zftac3rb or pc-Htac3r (at 3 μg/plate), a reporter plasmid (at 2 μg/plate), and pCMV-β-galactosidase (at 1 μg/plate) was carried out with FuGENE 6.0 reagent (Roche). The cells were serum starved for 36 h, stimulated with vehicle or various concentrations of either human (Sigma) or zebrafish NKBs for 6 h, and then harvested and analyzed. Lysates prepared from the harvested cells were assayed for both luciferase activity and β-galactosidase activity, which was used as an internal standard to normalize the luciferase activity directed by the test plasmid. Transfection experiments were performed in triplicate with three independently isolated sets. Protein structure prediction of zebrafish NKBa, NKBb or NKF were performed on I-Tasser servers.
# (§3) The response, binding selectivity and signal transduction pathways of the novel tachykinin receptors to their agonists were evaluated by functional expression analysis, using COS-7 cells.
# (§4) Thus, the ability of the three novel piscine peptides (namely, NKBa, NKBb and NKF, denoted by SEQ ID NO.40, 41 and 42), as well as the ability of the three analogous agonistic peptides, namely, NKBa-analog, NKBb-analog and NKF-analog, to differentially activate the different tac3 receptors, using SRE as a reporter gene that follows PKC activation and CRE as a reporter gene for the PKA pathway, was tested. Human NK3R (human NKB receptor) and human NKB served as controls.
# [8] = tested on: NKB receptors (human NKBR, zebrafish Tac3ra, Tac3rb); experiment: as above; assay type: cell-based; conditions: both zebrafish tac3 receptors, in both signal transduction systems
# Experimental: as §2, §3, §4
# [9] = tested on: sexually mature female zebrafish; experiment: In vivo effect of NKBs in zebrafish: LH secretion after intraperitoneal injection; conditions: single intraperitoneal injection
# Experimental: In vivo studies involved administering NKBa, NKBb or NKF and the analogues thereof, denoted by SEQ ID NO. 40-42 and 44-46, respectively to immature fish (20 fish/treatment). The circulating levels of E2, 11KT, LH and FSH were determined prior to hormonal manipulations, in order to confirm that these fish were indeed sexually immature. The fish were injected intramuscularly (i.m.) or intraperitonealy (i.p.) at various doses. Adult female zebra fish were injected intraperitoneally with 20 pmol/g body weight. Control fish were injected with saline. Plasma samples were collected at time 0, and specific times after the administration of the peptide/s, to determine the levels of E2, 11KT, LH and FSH.
# To further characterize the role of the NKB/NKBR system in fish reproduction the in vivo biological function of zebrafish NKB peptides was next examined.
smiles,measurement,setting,value
CC[C@H](C)[C@H](NC(=O)[C@H](CC(=O)O)NC(=O)[C@H](CC(N)=O)NC(=O)[C@@H](N)Cc1ccc(O)cc1)C(=O)N[C@@H](CC(=O)O)C(=O)N[C@@H](Cc1ccc(O)cc1)C(=O)N[C@@H](CC(=O)O)C(=O)N[C@@H](CO)C(=O)N[C@@H](Cc1ccccc1)C(=O)N[C@H](C(=O)NCC(=O)N[C@@H](CC(C)C)C(=O)N[C@@H](CCSC)C(N)=O)C(C)C [zfNKF] (H-YNDIDYDSFVGLM-NH2),EC50,"zfTac3ra [1]; Table 5, COS-7 cells, CRE-Luc follows PKA activation, read-out: EC50 CRE-Luc zfTac3ra",4.94 ± 1.83 nM
same,EC50,"zfTac3ra [1]; Table 6 (native peptides and analogues), PKA activation, read-out: EC50 using CRE-Luc, zfTac3ra",4.94 ± 1.83 nM
same,EC50,"zfTac3rb [2]; Table 5, COS-7 cells, CRE-Luc follows PKA activation, read-out: EC50 CRE-Luc zfTac3rb",1.8 ± 1.55 nM
same,EC50,"zfTac3rb [2]; Table 6 (native peptides and analogues), PKA activation, read-out: EC50 using CRE-Luc, zfTac3rb",1.8 nM
same,EC50,huNK3R [3],4.36 ± 1.25 nM
same,EC50,"zfTac3ra [4]; Table 5, COS-7 cells, SRE-Luc follows PKC activation, read-out: EC50 SRE-Luc zfTac3ra",0.54 ± 0.13 nM
same,EC50,"zfTac3ra [4]; Table 7 (native peptides and analogues), PKC activation, read-out: EC50 using SRE, zfTac3ra",0.55 nM
same,EC50,"zfTac3rb [5]; Table 5, COS-7 cells, SRE-Luc follows PKC activation, read-out: EC50 SRE-Luc zfTac3rb",0.36 ± 0.16 nM
same,EC50,"zfTac3rb [5]; Table 7 (native peptides and analogues), PKC activation, read-out: EC50 using SRE, zfTac3rb",0.37 ± 0.16 nM
same,"SRE-driven luciferase activity, response",huNK3R [6]; COS-7 cells transiently transfected with human NK3R,elicited an increased response
same,EC50,"huNK3R [6]; Table 5, COS-7 cells, SRE-Luc follows PKC activation, mean ± SEM",0.52 ± 0.18 nM
same,potency,[7],high potency
same,potency,[8],most potent among all tachykinins examined
same,LH secretion,"[9]; 20 pmol/g body weight, sexually mature female zebrafish",significant increase; also recorded: significant LH secretion
same,magnitude of the induced LH discharge,[9]; compared with GnRH,comparable with that observed in response to GnRH
